Marks after values point to notes of the source that are not given here.
What was measured:
C. albicans SC5314 = assay: Fungal MIC susceptibility assay, C. albicans; assay type: cell-based, Candida albicans; conditions: for C. albicans SC5314 MIC: Table 2B
Method: Fungal minimum inhibition concentrations (MICs) were determined using standard microdilution methods according to the Clinical and Laboratory Standards Institute document M27-A3. The test compound concentration ranged from 0.01 to 100 μM. Amphotericin B (AmB) and itraconazole (ITC) (Fisher Scientific) were included as positive controls. DMSO, the vehicle control, was used at ≤1% v/v for these experiments. The fungal M27-A3 standard MIC assay protocol requires the following inoculum preparation protocol: The organisms were cultured onto PDA medium at 35° C. The inoculum is prepared by picking five colonies from 24-hour old culture of Candida spp. or 48-hour old culture of C. neoformans. The inoculum was suspended in 5 ml of sterile water, the resulting suspension was vortexed for 15 seconds and the cell density adjusted (by adding more sterile water) to an OD530=0.30, which yields a suspension of 1×10^6 to 5×10^6 cells per mL. The suspension was diluted 50 times and then 20 times using RPMI 1640 medium to obtain the two times test inoculum (1×10^3 to 5×10^3 cells per mL). The following steps are the same with the standard bacterial MIC protocol using 96-well plates. NOTE: RPMI 1640 medium was used in the fungal MIC assay (for both cell inoculum and compound dilution).

VRE ATCC 700221 biofilms = assay: Calgary Biofilm Device assay (MBC/MBEC), VRE 700221; assay type: cell-based, Enterococcus faecium; conditions: for VRE MBC / VRE MBEC: Table 2A; for VRE 700221 MBEC: biofilm
Method: (§1) The lid of the Calgary device was then removed, washed and transferred to another 96-well plate containing 2-fold serial dilutions of the test compounds (the “challenge plate”). The total volume of media with compound in each well in the challenge plate is 150 μL. […] The lid was then removed from the challenge plate and MBC/MBEC values were determined using different final assays. […] The MBC values were determined as the concentration giving a lack of visible bacterial growth (i.e., turbidity). […] In select experiments, pegs from the Calgary device were removed from lead biofilm eradicators after final incubation, sonicated for 30 minutes in PBS and plated out to determine biofilm cell killing of lead biofilm-eradicating agents (i.e., colony forming unit per milliliter, CFU/mL).
(§2) Using a Calgary Biofilm Device, bacterial biofilms are established on pegs suspended to the bottom of a 96-well plate lid. Following biofilm establishment on lid pegs, lids are then transferred to new 96-well plates containing serial dilutions of test compound and allowed to incubate. After compound treatment, 96-well plate lids with pegs are once again transferred to 96-well plates containing fresh media. During this final phase of the assay, viable biofilms will grow and disperse planktonic cells into the media where they will grow and give a turbid well result. Conversely, wells that have no growth are a result of pegs that had eradicated bacterial biofilms. The lowest concentration at which no turbidity is observed is the minimum biofilm eradication concentration (MBEC). Using the Calgary Biofilm Device, both minimum biofilm eradication concentrations and minimum bactericidal concentrations (MBC) for planktonic bacterial can be determined using one assay from a single bacterial culture (FIG. 3A).

MRSA BAA-1707 biofilms [1] = assay: Calgary Biofilm Device assay (MBC/MBEC), MRSA BAA-1707; assay type: cell-based, Staphylococcus aureus
Method: as §1, §2

[2] = tested on: MRSA BAA-1707 stationary cultures; assay: MRSA persister cell kill kinetics (stationary cultures); assay type: cell-based, Staphylococcus aureus; conditions: 50 μM; after 90 minutes
Method: (§3) An overnight culture of MRSA BAA-1707 was diluted in fresh TSBG (1:13 to 1:20 fold) and allowed to grow with shaking. Once the culture reached stationary phase (4-6 hours), test compounds were added at a final test concentration of 50 μM. The cultures were incubated with shaking at 250 rpm and aliquots were removed and plated out at predetermined time points. Colony forming units (CFU) per milliliter data was recorded and plotted using Graphpad Prism 6.0.
The panel of membrane-active compounds was also evaluated head-to-head at 50 μM against MRSA BAA-1707 stationary cultures in kinetic killing experiments. Stationary cultures of S. aureus have elevated populations of metabolically dormant persister cells^36,37 and using this experiment, we could get multiple early time points to see if 1 and 2 were rapid killers of MRSA persister cells.
as §3, with “different” for “predetermined”

MRSA BAA-1707 biofilms [3] = assay: Live/Dead staining of MRSA biofilms; assay type: cell-based, Staphylococcus aureus
Method: A mid-log culture of MRSA BAA-1707 was diluted 1:1000-fold and 500 μL was transferred to each compartment of a four-compartment CELLview dish (Greiner Bio-One 627871). The dish was then incubated for 24 hours at 37° C. to establish MRSA-1707 biofilms. After this time, the cultures were removed and the plate was washed with 0.9% saline. The dish was then treated with test compounds in fresh media at various concentrations. DMSO was used as a negative control in this assay. The dish was incubated with the test compound for 24 hours at 37° C. After this time, the cultures were removed and the dish was washed with 0.9% saline for 2 minutes. Saline was then removed and 500 μL of the stain (Live/Dead BacLight Viability Kit, Invitrogen) were added for 15 minutes and left in the dark. After this time, the stain was removed and the dish was washed twice with 0.9% saline. Then the dish was fixed with 500 μL 4% paraformaldehyde in PBS for 30 minutes. Images of remaining MRSA biofilms were then taken with a fluorescence microscope.

[4] = Table 2, CBD assay, planktonic cells

Row | Compound | C. albicans SC5314 MIC (C. albicans SC5314) [µM] | MIC C. albicans SC5314 (C. albicans SC5314; Table 4, antifungal) [µM] | VRE MBC (VRE ATCC 700221 biofilms; CBD assay) | VRE MBEC (VRE ATCC 700221 biofilms; CBD assay) | MRSA BAA-1707 MBC (MRSA BAA-1707 biofilms [1]; Table 2A, CBD assay) | MRSA BAA-1707 MBEC (MRSA BAA-1707 biofilms [1]; Table 2A, CBD assay) | also measured
1 | CCCCCCCCCCCCCCCCn1cc[n+](CCO)c1C.[Br-] [Compound 11] | 3.13 | 3.13 | 3.0^a/ μM | 3.9 µM | 23.5^a/ μM | 46.9^a μM | 
2 | CCCCCCCCCCCCCCCCn1cc[n+](C)c1C.[I-] [Compound 8] | 3.13 | 3.13 | 3.9/3.9 μM | 3.9/3.9 μM | 11.7^a/ μM | 31.3 µM | 
3 | CCCCCCCCCCCCCCCC[N+](C)(C)Cc1ccccc1.[Cl-] [BAC-16, reference compound] | 3.13 | 3.13 |  |  |  |  | 
4 | CCCCCCCCCCCCCCCCn1cc[n+](Cc2cccc(F)c2)c1C.[Br-] [Compound 18] |  |  | 5.85^a/ μM | 11.7^a μM |  |  | 
5 | CCCCCCCCCCCC[N+](C)(C)CC[N+](C)(C)CC[N+](C)(C)CCCCCCCCCCCC [QAC-10, reference compound] |  |  | 3.0^a/ μM | 3.0^a μM | 93.8^a/ μM | 93.8^a μM | MBEC, VRE biofilms (VRE ATCC 700221 biofilms): 3.0 µM; VRE 700221 MBEC (VRE ATCC 700221 biofilms; Table 2, CBD assay): 3.0^a/3.0^a μM; VRE 700221 MBC (VRE ATCC 700221 biofilms; [4]): 3.0^a/3.0^a μM; MRSA BAA-1707 MBEC (MRSA BAA-1707 biofilms [1]; Table 2, CBD assay, biofilm): 93.8^a/93.8^a μM; MRSA BAA-1707 MBC (MRSA BAA-1707 biofilms [1]; [4]): 93.8^a/93.8^a μM
6 | CCCCCCCCCCCCCCCCn1cc[n+](Cc2ccccc2)c1C [NH125, 3-benzyl-1-hexadecyl-2-methyl-1H-imidazol-3-ium bromide, reference compound] |  |  |  |  |  |  | reduction of stationary MRSA cells [2]: ~1 logs; MIC (C. albicans SC5314; Candida albicans, SC5314, Table 4, antifungal): 3.13 µM; MBC (VRE ATCC 700221 biofilms; Enterococcus, Table 2, CBD assay, planktonic cells): 59 µM; VRE 700221 MBEC (VRE ATCC 700221 biofilms; Table 2, CBD assay): 11.7 µM; clearance of MRSA biofilms (fluorescence images) (MRSA BAA-1707 biofilms [3]; FIG. 4, 24 hours after treatment): potent clearance of MRSA biofilms; clearance of established biofilms (Live/Dead staining) (MRSA BAA-1707 biofilms [3]; at 31.3 μM): effective clearance of established biofilms; minimum biofilm eradication concentration (MBEC), MRSA BAA-1707 biofilms (MRSA BAA-1707 biofilms [1]): 46.9 µM; MBC (MRSA BAA-1707 biofilms [1]; Staphylococcus aureus, Table 2, CBD assay, planktonic cells): 23.5 µM; MRSA BAA-1707 MBEC (MRSA BAA-1707 biofilms [1]; Table 2, CBD assay, biofilm): 46.9 µM; reduction of viable biofilm cells (MRSA BAA-1707 biofilms [1]; at 62.5, colony counts of CBD pegs, MRSA BAA-1707): 3 to 4 log
7 | CCCCCCCCCCCCCCCCn1cc(-c2ccccc2)[n+](C)n1.[I-] [Compound 30] |  |  |  |  | 11.7^a/ μM | 23.5^a μM | 
